Measurements as given in patent publication US7816353B2 (Exelixis, Inc., priority 2003, dated 2010).
pIC50: −log10 of the molar value.

Biological target: T1, p70S6K (Homo sapiens, UniProt P23443, T412E)
T1 construct: human p70S6 kinase domain residues 1-421, containing a T412E mutation; made in house
Test: p70S6 Kinase Assay (Luciferase-Coupled Chemiluminescent Kinase assay, LCCA)
Assay type: biochemical
Conditions: human p70S6 kinase domain residues 1-421, T412E; 5 μM ATP; read-out: p70S6K IC50
Protocol: Kinase activity and compound inhibition are investigated using one or more of the three assay formats described below. The ATP concentrations for each assay are selected to be close to the Michaelis-Menten constant (KM) for each individual kinase. Dose-response experiments are performed at 10 different inhibitor concentrations in a 384-well plate format. […] Y=Min+(Max−Min)/(1+(X/IC50)^H) Equation (2) p70S6 Kinase Assay
Biochemical activity of p70S6 kinase was assessed using a Luciferase-Coupled Chemiluminescent Kinase assay (LCCA) format. Kinase activity was measured as the percent ATP remaining following the kinase reaction. Remaining ATP was detected by luciferase-luciferin-coupled chemiluminescence. […] The mixture is incubated at ambient temperature for 2 hours after which 20 μL luciferase-luciferin mix is added and the chemiluminescent signal read using a Wallac Victor^2 reader.

T1 sequence (P23443 1-421 T412E): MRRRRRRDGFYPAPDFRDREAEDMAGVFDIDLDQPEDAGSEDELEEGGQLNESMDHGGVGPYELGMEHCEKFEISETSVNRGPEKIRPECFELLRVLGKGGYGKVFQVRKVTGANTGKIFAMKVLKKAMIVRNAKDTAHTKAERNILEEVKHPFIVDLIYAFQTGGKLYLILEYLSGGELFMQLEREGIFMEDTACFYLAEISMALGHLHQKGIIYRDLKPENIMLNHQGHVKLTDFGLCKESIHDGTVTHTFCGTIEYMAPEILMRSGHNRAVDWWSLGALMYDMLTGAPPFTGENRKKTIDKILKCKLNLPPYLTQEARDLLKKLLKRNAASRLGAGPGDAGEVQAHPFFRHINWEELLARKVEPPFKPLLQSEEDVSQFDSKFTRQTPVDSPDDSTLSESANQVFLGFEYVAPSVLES

| pIC50 | SMILES |
| --- | --- |
| 5.70 to 6.30 | CSc1nc(N)nc(N[C@@H](C)C(=O)Nc2cccc(C(F)(F)F)c2)c1C#N [Example 60, N^2-[2-amino-5-cyano-6-(methylthio)pyrimidin-4-yl]-N-[3-(trifluoromethyl)phenyl]-L-alaninamide] |
| < 5.70 | CCOc1nc(N)nc(N[C@@H](C)C(=O)Nc2cc(OCCN(C)C)cc(C(F)(F)F)c2)c1C#N [Example 180, N~2~-[2-amino-5-cyano-6-(ethyloxy)pyrimidin-4-yl]-N-[3-{[2-(dimethylamino)ethyl]oxy}-5-(trifluoromethyl)phenyl]-L-alaninamide] |
| 6.30 to 7.30 | Nc1nc(SCC(=O)Nc2cccc(C(F)(F)F)c2)c(CO)c(Sc2ccccc2)n1 [Example 52] |
| < 5.70 | COC(=O)c1cc(NC(=O)[C@H](C)Nc2nc(N)nc(OC)c2C#N)cc(C(F)(F)F)c1 [Example 189, methyl 3-({N-[2-amino-5-cyano-6-(methyloxy)pyrimidin-4-yl]-L-alanyl}amino)-5-(trifluoromethyl)benzoate] |
| < 5.70 | CSc1nc(N(C)C)nc(NCC(=O)Nc2cccc(C(F)(F)F)c2)c1C#N [Example 71, N^2-[5-cyano-2-(dimethylamino)-6-(methylthio)pyrimidin-4-yl]-N-[3-(trifluoromethyl)phenyl]glycinamide] |
| < 5.70 | CSc1nc(N)nc(N(C)CC(=O)Nc2cccc(C)c2)c1C#N [Example 109, N^2-[2-amino-5-cyano-6-(methylthio)pyrimidin-4-yl]-N^2-methyl-N-(3-methylphenyl)glycinamide] |
| < 5.70 | CCOc1nc(N)nc(N[C@@H](CCC[N+](C)(C)C)C(=O)Nc2cccc(C(F)(F)F)c2)c1C#N [Example 169, N-((4S)-4-{[2-amino-5-cyano-6-(ethyloxy)pyrimidin-4-yl]amino}-5-oxo-5-{[3-(trifluoromethyl)phenyl]amino}pentyl)-N,N-dimethylmethanaminium] |
| < 5.70 | CCOc1nc(N)nc(N[C@@H](CCCN2CCOCC2)C(=O)Nc2cccc(C(F)(F)F)c2)c1C#N [Example 168, N~2~-[2-amino-5-cyano-6-(ethyloxy)pyrimidin-4-yl]-5-morpholin-4-yl-N-[3-(trifluoromethyl)phenyl]-L-norvalinamide] |

The next lines start with the compound.

| SMILES | pIC50 |
| --- | --- |
| C[C@H](Nc1nc(N)nc([S+](C)[O-])c1C#N)C(=O)Nc1cccc(C(F)(F)F)c1 (stereo partly drawn) [Example 74, N^2-[2-amino-5-cyano-6-(methylsulfinyl)pyrimidin-4-yl]-N-[3-(trifluoromethyl)phenyl]-L-alaninamide] | < 5.70 |
| CSc1nc(N)nc(OCC(=O)Nc2cccc(C(F)(F)F)c2)c1C=O [Example 46, 2-{[2-amino-5-formyl-6-(methylthio)pyrimidin-4-yl]oxy}-N-[3-(trifluoromethyl)phenyl]acetamide] | 6.30 to 7.30 |
| CCCOc1nc(N)nc(N[C@@H](C)C(=O)Nc2cccc(C(F)(F)F)c2)c1C#N [Example 115, N^2-[2-amino-5-cyano-6-(propyloxy)pyrimidin-4-yl]-N-[3-(trifluoromethyl)phenyl]-L-alaninamide] | 6.30 to 7.30 |
| CCOc1nc(N)nc(NNC(=O)Nc2cccc(C(F)(F)F)c2)c1C#N [Example 127, 2-[2-amino-5-cyano-6-(ethyloxy)pyrimidin-4-yl]-N-[3-(trifluoromethyl)phenyl]hydrazinecarboxamide] | < 5.70 |
| CSc1nc(N)nc(NNC(=O)Nc2cccc(C(F)(F)F)c2)c1C#N [Example 64, 2-[2-amino-5-cyano-6-(methylthio)pyrimidin-4-yl]-N-[3-(trifluoromethyl)phenyl]hydrazinecarboxamide] | 5.70 to 6.30 |
| CSc1nc(N)nc(N[C@@H](C)C(=O)Nc2cc(C(=O)NCCN(C)C)cc(C(F)(F)F)c2)c1C#N [Example 125, 3-({N-[2-amino-5-cyano-6-(methylthio)pyrimidin-4-yl]-L-alanyl}amino)-N-[2-(dimethylamino)ethyl]-5-(trifluoromethyl)benzamide] | < 5.70 |
